In ChEMBL document CHEMBL1133670 (J Med Chem, 2000):

Columns and labels:
[1] = target: Protein farnesyltransferase (Homo sapiens, UniProt P49354+P49356); assay: Inhibition of purified recombinant human farnesyltransferase (FT)
Mus musculus [2] = assay: In vivo antitumor activity (log cell kill, LCK) by subcutaneous implantation of HCT116 tumors followed by oral administration at an optimal dose of 600 mg/kg in expt. 5; format: functional
NIH3T3 = assay: cells; settings: Mus musculus
Description: Inhibition of anchorage independent growth of H-ras transformed NIH3T3 cells in Soft Agar

[3] = target: T1, Protein farnesyltransferase (Rattus norvegicus) (UniProt Q04631+Q02293); assay: Percent phenotypic reversion of H-ras transformed Rat-1 cells at 10 uM; format: functional, cell-based
[4] = target: T1, Protein farnesyltransferase (Rattus norvegicus); assay: Percent phenotypic reversion of H-ras transformed Rat-1 cells at 1 uM; format: functional, cell-based
Mus musculus [5] = assay: In vivo antitumor activity (log cell kill, LCK) by subcutaneous implantation of HCT116 tumors followed by oral administration at an optimal dose of 600 mg/kg in expt. 2; format: functional
Mus musculus [6] = assay: In vivo antitumor activity (log cell kill, LCK) by subcutaneous implantation of HCT116 tumors followed by oral administration at an optimal dose of 700 mg/kg in expt. 1; format: functional
in vivo [7] = settings: rat, po, 50 mg/kg
Description: Oral bioavailability observed in rats at an oral dose of 50 mg/kg

[8] = Half-life of compound in rats following intravenous dose of 50 mg/kg; settings: rat, in vivo
in vivo [9] = settings: rat, iv, 50 mg/kg
Description: Volume of distribution (Vss) in rats following intravenous dose of 50 mg/kg

[10] = Maximum concentration observed in rats at an oral dose of 50 mg/kg; settings: rat, in vivo
[11] = Clearance in rats following intravenous dose of 50 mg/kg; settings: rat, in vivo
[12] = target: T1, Protein farnesyltransferase (Rattus norvegicus); assay: Percent phenotypic reversion of H-ras transformed Rat-1 cells at 5 uM; format: functional, cell-based
Mus musculus [13] = species on record: Mus musculus; assay: Increase in lifespan reflected by relative median survival time of treated versus control groups expressed as maximum % T/C; format: functional
Mus musculus [14] = assay: In vivo antitumor activity (log cell kill, LCK) by subcutaneous implantation of HCT116 tumors followed by oral administration at an optimal dose of 600 mg/kg in expt. 3; format: functional
Mus musculus [15] = assay: In vivo antitumor activity (log cell kill, LCK) by subcutaneous implantation of HCT116 tumors followed by oral administration at an optimal dose of 600 mg/kg in expt. 4; format: functional
[16] = Half-life of compound in Balb/c mice following an oral dose of 90 mg/kg; settings: Balb/c mouse, in vivo
[17] = Oral bioavailability, based on dose-normalized AUC values in BALB/c mice; format: ADME, organism-based; settings: mouse, in vivo
Mus musculus [18] = assay: In vivo antitumor activity (log cell kill, LCK) by subcutaneous implantation of HCT116 tumors followed by oral administration at an optimal dose of 600 mg/kg in mice

Structure (SMILES) | IC50 [1] | EC50 (NIH3T3) | Reversion [4] | further results
CS(=O)(=O)N1Cc2cc(Br)ccc2N(Cc2cnc[nH]2)C[C@@H]1Cc1ccccc1 | 437 nM | – | – | –
CN(C)CCS(=O)(=O)N1Cc2cc(C#N)ccc2N(Cc2c[nH]cn2)C[C@H]1Cc1ccccc1 | 1.53 nM | 30 nM | – | LCK (Mus musculus [2]): 1
CS(=O)(=O)N1Cc2cc(Br)ccc2N(Cc2c[nH]cn2)C[C@H]1CC1CCCCC1 | – | – | – | Reversion [3]: 90%
CS(=O)(=O)N1Cc2cc(-c3ccccc3)ccc2N(Cc2c[nH]cn2)CC1Cc1ccccc1 (stereo not given) | – | 530 nM | 70% | –
CCCS(=O)(=O)N1Cc2cc(C#N)ccc2N(Cc2cnc[nH]2)C[C@H]1Cc1ccccc1 | 1.77 nM | 10 nM | – | –
CS(=O)(=O)N1Cc2cc(Br)ccc2N(Cc2cnc[nH]2)C[C@H]1CC1CCCCC1 | 23.5 nM | – | – | –
CS(=O)(=O)N1Cc2cc(-c3ccncc3)ccc2N(Cc2c[nH]cn2)C[C@H]1Cc1ccccc1 | 16 nM | 40 nM | – | LCK (Mus musculus [5]): 0.2
CS(=O)(=O)N1Cc2cc(-c3cccnc3)ccc2N(Cc2c[nH]cn2)CC1Cc1ccccc1 (stereo not given) | – | – | 10% | –
CS(=O)(=O)N1Cc2cc(Br)ccc2N(Cc2c[nH]cn2)C[C@H]1Cc1ccccc1 | – | 290 nM | 70% | LCK (Mus musculus [6]): 1.5
CS(=O)(=O)N1Cc2cc(Br)ccc2N(Cc2c[nH]cn2)CC1CNC(=O)c1ccccc1 (stereo not given) | – | – | 0% | –
CS(=O)(=O)N1Cc2cc(Br)ccc2N(Cc2c[nH]cn2)CC1CCc1ccccc1 (stereo not given) | – | 400 nM | 70% | –
COc1ccc(CC2CN(Cc3c[nH]cn3)c3ccc(Br)cc3CN2S(C)(=O)=O)cc1 (stereo not given) | 101 nM | – | 0% | –
CC(=O)N1Cc2cc(C#N)ccc2N(Cc2c[nH]cn2)C[C@H]1Cc1ccccc1 | 8.75 nM | 100 nM | – | –
CS(=O)(=O)N1Cc2cc(Br)ccc2N(Cc2cnc[nH]2)CC1CNC(=O)c1ccccc1 (stereo not given) | 86 nM | – | – | –
N#Cc1ccc2c(c1)CN(S(=O)(=O)c1cccs1)[C@H](Cc1ccccc1)CN2Cc1cnc[nH]1 [BMS-214662] | – | – | – | bioavailability (in vivo [7]): 56%; half-life [8]: 2.4 h; Vd (in vivo [9]): 1.4 L/kg; Cmax [10]: 20 µM; clearance [11]: 5.7 mL/min/kg
CC1CN(Cc2c[nH]cn2)c2ccccc2CN1C(=O)c1cccc2ccccc12 (stereo not given) | 1100 nM | – | – | Reversion [3]: 0%
O=C(c1cccc2ccccc12)N1CCN(Cc2c[nH]cn2)c2ccc(Br)cc2C1 | – | – | – | Reversion [12]: 5%
CC(=O)N1Cc2cc(Br)ccc2N(Cc2c[nH]cn2)CC1Cc1cccc2ccccc12 (stereo not given) | – | – | 5% | –
CS(=O)(=O)N1Cc2cc(Br)ccc2N(Cc2cnc[nH]2)CC1CCc1ccccc1 (stereo not given) | 45 nM | – | – | –
CS(=O)(=O)N1Cc2cc(Br)ccc2N(Cc2c[nH]cn2)CC1Cc1ccccc1 (stereo not given) | – | 270 nM | 80% | T/C (Mus musculus [13]): 138%

Structure (SMILES) | IC50 [1] | EC50 (NIH3T3) | Reversion [4] | further results
CS(=O)(=O)N1Cc2cc(-c3ccccc3)ccc2N(Cc2cnc[nH]2)CC1Cc1ccccc1 (stereo not given) | 54.5 nM | – | – | –
CS(=O)(=O)N1Cc2cc(C#N)ccc2N(Cc2c[nH]cn2)C[C@H]1Cc1ccccc1 | 3 nM | 13 nM | – | LCK (Mus musculus [14]): 0.6
O=C(c1cccc2ccccc12)N1CCN(Cc2c[nH]cn2)c2ccccc2C1 | – | – | – | Reversion [3]: 0%
CN(C)S(=O)(=O)N1Cc2cc(C#N)ccc2N(Cc2c[nH]cn2)C[C@H]1Cc1ccccc1 | 2.85 nM | 50 nM | – | LCK (Mus musculus [15]): 0.2
CCOC(=O)N1Cc2cc(C#N)ccc2N(Cc2c[nH]cn2)C[C@H]1Cc1ccccc1 | 22 nM | 300 nM | 50% | –
CN(C)C(=O)N1Cc2cc(C#N)ccc2N(Cc2c[nH]cn2)C[C@H]1Cc1ccccc1 | 17 nM | – | 40% | –
CC(=O)N1Cc2ccccc2N(Cc2c[nH]cn2)CC1Cc1ccccc1 (stereo not given) | 1300 nM | – | – | –
CS(=O)(=O)N1Cc2cc(Br)ccc2N(Cc2c[nH]cn2)CC1Cc1cccc(Cl)c1 (stereo not given) | 24 nM | – | – | Reversion [3]: 70%
CS(=O)(=O)N1Cc2cc(Br)ccc2N(Cc2c[nH]cn2)CC1Cc1ccccc1Cl (stereo not given) | 18 nM | 460 nM | 70% | –
N#Cc1ccc2c(c1)CN(S(=O)(=O)c1ccccc1)[C@H](Cc1ccccc1)CN2Cc1cnc[nH]1 | 1.77 nM | 10 nM | – | –
O=C(c1cccc2ccccc12)N1Cc2ccccc2N(Cc2c[nH]cn2)CC1Cc1ccccc1 (stereo not given) | 276 nM | – | – | Reversion [3]: 70%
CS(=O)(=O)N1Cc2cc(-c3cccnc3)ccc2N(Cc2cnc[nH]2)CC1Cc1ccccc1 (stereo not given) | 7.9 nM | – | – | –
CS(=O)(=O)N1Cc2cc(Br)ccc2N(Cc2cnc[nH]2)CC1Cc1ccccc1 (stereo not given) | 30 nM | – | – | –
CC(=O)N1Cc2cc(Br)ccc2N(Cc2c[nH]cn2)CC1Cc1ccccc1 (stereo not given) | 60 nM | 600 nM | 30% | –
CS(=O)(=O)N1Cc2cc(Br)ccc2N(Cc2cnc[nH]2)C[C@H]1Cc1ccccc1 | 10.7 nM | – | – | half-life [16]: 1.2 h; bioavailability [17]: 40%
CC(=O)N1Cc2cc(Br)ccc2N(Cc2cnc[nH]2)CC1Cc1cccc2ccccc12 (stereo not given) | 54.5 nM | – | – | –
CS(=O)(=O)N1Cc2cc(-c3ccccc3)ccc2N(Cc2cnc[nH]2)C[C@H]1Cc1ccncc1 | 383 nM | – | – | –
O=C(c1cccc2ccccc12)N1CCN(Cc2cnc[nH]2)c2ccc(Br)cc2C1 | 228 nM | – | – | –
CS(=O)(=O)N1Cc2cc(-c3ccccc3)ccc2N(Cc2c[nH]cn2)C[C@H]1Cc1cccnc1 | 5.95 nM | 15 nM | – | LCK (Mus musculus [18]): 0.1
